# Experiments:
# [1] = test system: macrophages of apoE-deficient mice; assay: Cholesterol efflux caused by HDL in macrophages collected from treated apoE-deficient mice; format: in vivo; details: 0.6 nmol/kg/h, four weeks; P<0.01
# Method: (§1) 13-week-old male apoE-deficient mice (72 mice) were divided into the following 6 groups: (i) physiological salt saline (control); (ii) salusin-α (0.6 nmol/kg/h); (iii) salusin-β (0.6 nmol/kg/h); (iv) salusin-α (0.6 nmol/kg/h)+anti-salusin-α serum (1.4 μg/kg/h); (v) salusin-β (0.6 nmol/kg/h)+anti-salusin-β serum (1.4 μg/kg/h); and (vi) anti-salusin-β serum (1.4 μg/kg/h). The mice were subjected to continuous subcutaneous administration with the use of an osmotic mini-pump for 4 to 8 weeks. The osmotic mini-pump and the solution contained therein were changed every week.
# Macrophages collected in the above manner were kept warm for 24 hours in a culture solution prepared as above containing oxidized LDL (10 μg/ml) labeled with [^3H]cholesterol (74 kBq/mL) and washed twice with PBS. Thereafter, the macrophages were kept warm for 16 hours in an RPMI1640 solution containing 0.1% BSA to which HDL (15 μg/mL) had been added. The culture solution was centrifuged at 15,000 rpm for 10 minutes so as to remove the residues therefrom. […] The radioactivity of [^3H]cholesterol in the culture solution and that in the cell extraction solution were assayed: cholesterol efflux (%)=the radioactivity of [^3H]cholesterol in the culture solution/the radioactivity of [^3H]cholesterol in the culture solution+the radioactivity of [^3H]cholesterol in the cell extraction solution×100
# [2] = test system: SR-BI; assay: SR-BI expression by macrophages of treated apoE-deficient mice (Western blotting); format: in vivo; details: 0.6 nmol/kg/h, four weeks; range given jointly for ABCA1, ABCG1, SR-BI; P<0.05
# Method: as §1
# (§2) Macrophages were collected as in the experiment in (1), and the protein expression of the gene involved in foaming of macrophages (i.e., scavenger receptors CD36 and SR-A capable of recognizing oxidized LDL, intracellular cholesterol esterification enzyme ACAT1, and ABCA1, ABCG1, and SR-BI, which are involved in cholesterol efflux) was analyzed by Western blotting. For the internal standard of the macrophage function, β-actin expression was also examined. For quantification of the band concentration, Analyzer (ATTO Corporation, Tokyo) was used.
# [3] = test system: ABCG1; assay: ABCG1 expression by macrophages of treated apoE-deficient mice (Western blotting); format: in vivo; details: 0.6 nmol/kg/h, four weeks; range given jointly for ABCA1, ABCG1, SR-BI; P<0.05
# Method: as §1, §2
# [4] = test system: ABCA1; assay: ABCA1 expression by macrophages of treated apoE-deficient mice (Western blotting); format: in vivo; details: 0.6 nmol/kg/h, four weeks; range given jointly for ABCA1, ABCG1, SR-BI; P<0.05
# Method: as §1, §2
# [5] = test system: ACAT-1 mRNA expression; assay: ACAT-1 mRNA expression in human monocyte-derived macrophages (real time RT-PCR); format: cell-based; details: 0.6 nM during 7-day culture
# Method: RNA extraction was performed using a TRIzol reagent (LIFE TECHNOLOGIES).
# Cells were cultured for 7 days in a medium and then the medium was removed. The cells were washed 3 times with PBS. PBS was sufficiently removed therefrom and TRIzol (1 mL) was added thereto for cell lysis. The cell extraction solution was pippeted in and out 5 times and then transferred to a new Eppendorf tube. Then, the tube was left at room temperature for 5 minutes. Chloroform (200 μL) was added thereto, followed by strong shaking for 15 seconds. The tube was further left for 2 to 3 minutes and centrifuged at 12,000 rpm for 15 minutes (Himac CF15D2 high-speed micro refrigerated centrifuge; Hitach, Ltd.). The top layer was transferred to a new Eppendorf tube and isopropanol (500 μL) was added thereto, followed by end-over-end mixing. […] The concentration of the thus obtained RNA solution was obtained by absorbance determination at 260 nm. […]
# Next, the RNA expression of ACAT-1 mRNA was analyzed by the real time RT-PCR method.
# Primer sequences were determined Primer Express Version 1.0 (PE Biosystems) with the use of the respective human mRNA sequences shown below. […]
# Real time PCR was performed to quantify the obtained cDNA by the GeneAmp 5700 Sequence Detection System (Applied Biosystems Japan) with the use of qPCR MasterMix SYBR Greenl (Eurogentec). […]
Substance,cholesterol efflux caused by HDL relative to control [1],SR-BI protein expression relative to initial level [2] [times],ABCG1 protein expression relative to initial level [3] [times],ABCA1 protein expression relative to initial level [4] [times],"ACAT-1 mRNA expression level, percent of that of the control [5] [%]",ACAT-1 mRNA expression level relative to control [5] [times]
"salusin-α: peptide (SEQ ID NO: 1) comprising 28 amino acid residues, generated by processing from preprosalusin (SGALPPAPAAPRPALRAQRAGPAGPGAK; listed as Homo sapiens)",approximately 2 times,1.5 to 2,1.5 to 2,1.5 to 2,80,
"salusin-β: peptide (SEQ ID NO: 3) comprising 20 amino acid residues, generated by processing from preprosalusin (AIFIFIRWLLKLGHHGRAPP; listed as Homo sapiens) [reference compound]",,,,,,1.6
